# Results published in publication PMC9598656, “In Vitro Activity of Robenidine Analogues NCL259 and NCL265 against Gram-Negative Pathogens” (Antibiotics, 2022).
# Tests used:
# [1] = tested on: K. pneumoniae ATCC 33495; assay: MIC, broth micro-dilution; type: cell-based, Klebsiella pneumoniae; settings: Klebsiella pneumoniae, ATCC33495, read-out: MIC, Single Drug
# Description: (§1) A variety of Gram-negative reference strains (E. coli ATCC 25922, E. coli ATCC 10763, P. aeruginosa PAO1, P. aeruginosa ATCC 27853, A. baumannii ATCC 12457, A. baumannii ATCC 19606, K. pneumoniae ATCC 4352 and K. pneumoniae ATCC 33495) were used for initial screening and combination testing with PMB. The organisms were speciated using biochemical testing and MALDI-TOF mass spectrometry (Bruker, Preston, VIC, Australia). Activity testing of NCL259 and NCL265 was also carried out on 51 extraintestinal clinical E. coli isolates from companion animals, and 83 porcine and bovine enterotoxigenic E. coli (ETEC) isolates from the Australian Centre for Antimicrobial Resistance Ecology collection. E. coli wild-type (BW 25113) and its mutant BW 25113∆AcrB, in which the inner membrane component AcrB of the tripartite multidrug efflux system AcrA/AcrB/TolC has been deleted, were obtained from the bacterial collection held at Health and Biomedical Innovation, Clinical and Health Sciences, The University of South Australia. All isolates were cultured on sheep blood agar (SBA) plates at 37 °C for 18 h before being subcultured into Luria Bertaini (LB) (Oxoid, Scoresby, VIC, Australia) broth and grown to A600nm = 0.5 (equivalent to approx. 1.5 × 10^8 colony-forming units (CFU)/mL).
# (§2) MICs for NCL259 and NCL265 (serial two-fold dilutions commencing at 256 µg/mL) were determined (in duplicate) in round bottom 96–well microtitre trays (Sarstedt 82.1582.001), using the broth micro-dilution method recommended by the Clinical and Laboratory Standards Institute (CLSI). We have shown previously that robenidine can chelate calcium ions from cation-adjusted Mueller-Hinton broth, which causes the loss of activity of robenidine. Therefore, LB broth was used in this study. Additionally, considering the low solubility of robenidine and its analogues in aqueous solutions, two-fold serial dilutions of stock solutions of these compounds were prepared in 100% DMSO [21]. The MIC for ampicillin against each isolate was determined for each test to serve as an internal quality control. The MICs of isolates were determined by visual reading and using an EnSpire Multimode Plate Reader 2300 at A600nm.
# [2] = tested on: K. pneumoniae ATCC 4352; assay: MIC, broth micro-dilution; type: cell-based, Klebsiella pneumoniae; settings: Klebsiella pneumoniae, ATCC4352, read-out: MIC, Single Drug
# Description: as §1, §2
# [3] = tested on: P. aeruginosa ATCC 27853; assay: Checkerboard assay with PMB; type: cell-based, Pseudomonas aeruginosa; settings: for MIC, Combination: NCL259 or NCL265 with PMB; for Combination Effect / FICI: with PMB
# Description: (§3) MICs of NCL259 or NCL265 in the presence of the efflux pump inhibitor, PAβN were determined using a checkerboard assay. […] Briefly, a two-fold serial dilution of each antimicrobial solution was prepared in its appropriate solvent (e.g., DMSO for robenidine analogues and Milli-Q water for PAβN), and 1 μL of each dilution was added from wells 12 to 3 (12.8–0.25 μg/mL for robenidine analogues, and 32–2 μg/mL for PAβN). Thereafter, 89 μL of LB broth was added to each well followed by the addition of 10 μL of bacterial suspension (1–5 × 10^6 CFU/mL) to each well. In this manner, the final concentration of DMSO in each well was 1%. The plate was subsequently incubated at 37 °C for 24 h. The resazurin assay was used for assessment of drug susceptibility of NCL259 and NCL265 (Supplementary Table S1–S6). The same method was also used to test the MICs of NCL259 or NCL265 in the presence of PMB against a range of Gram-negative reference strains (E. coli ATCC 25922, E. coli ATCC 10763, P. aeruginosa PAO1, P. aeruginosa ATCC 27853, A. baumannii ATCC 12457, A. baumannii ATCC 19606, K. pneumoniae ATCC 4352 and K. pneumoniae ATCC 33495). Stock solutions were prepared prior to use (25.6–0.25 mg/mL for robenidine analogues; 12.8–0.25 mg/mL for PMB). The interaction of two antibiotics was calculated as the fractional inhibitory concentration index (FICI) using the following formula:(1) FICI=MICA in combination/MICA alone+MICB in combination/MICB alone where A is NCL259 or NCL265 and B is PAβN or PMB. According to FICI calculations, the interaction between two compounds were interpreted as follows: synergistic (FICI ≤ 0.5); additive or partially synergistic (0.5 < FICI ≤ 1); indifferent (1 < FICI ≤ 4); and antagonistic (FICI > 4), as described previously. The dose reduction index (DRI) was used to describe the difference between the effective doses of NCL259 or NCL265 in combination with PMB or PAβN in comparison to their individual doses, using the following formula:(2) DRI=MICA alone/MICA in combination
# (§4) Evaluation of DRI is important clinically because it can allow the dose of a potentially toxic drug to be lowered in combination with another compound without reducing the drug’s efficacy. A DRI higher than 1 is viewed as beneficial.
# [4] = tested on: P. aeruginosa PAO1; assay: Checkerboard assay with PMB; type: cell-based, Pseudomonas aeruginosa; settings: for MIC, Combination: NCL259 or NCL265 with PMB; for Combination Effect / FICI: with PMB
# Description: as §3, §4
# [5] = tested on: K. pneumoniae ATCC 33495; assay: Checkerboard assay with PMB; type: cell-based, Klebsiella pneumoniae; settings: for MIC, Combination: NCL259 or NCL265 with PMB; for Combination Effect / FICI: with PMB
# Description: as §3, §4
# [6] = tested on: K. pneumoniae ATCC 4352; assay: Checkerboard assay with PMB; type: cell-based, Klebsiella pneumoniae; settings: for MIC, Combination: NCL259 or NCL265 with PMB; for Combination Effect / FICI: with PMB
# Description: as §3, §4
# [7] = tested on: 51 clinical ExPEC isolates from companion animals and 83 porcine and bovine ETEC isolates; assay: MIC, broth micro-dilution, all animal clinical isolates; type: cell-based, Escherichia coli; settings: ExPEC and ETEC isolates together
# Description: A variety of Gram-negative reference strains (E. coli ATCC 25922, E. coli ATCC 10763, P. aeruginosa PAO1, P. aeruginosa ATCC 27853, A. baumannii ATCC 12457, A. baumannii ATCC 19606, K. pneumoniae ATCC 4352 and K. pneumoniae ATCC 33495) were used for initial screening and combination testing with PMB. The organisms were speciated using biochemical testing and MALDI-TOF mass spectrometry (Bruker, Preston, VIC, Australia). Activity testing of NCL259 and NCL265 was also carried out on 51 extraintestinal clinical E. coli isolates from companion animals, and 83 porcine and bovine enterotoxigenic E. coli (ETEC) isolates from the Australian Centre for Antimicrobial Resistance Ecology collection. […]
# MICs for NCL259 and NCL265 (serial two-fold dilutions commencing at 256 µg/mL) were determined (in duplicate) in round bottom 96–well microtitre trays (Sarstedt 82.1582.001), using the broth micro-dilution method recommended by the Clinical and Laboratory Standards Institute (CLSI). […] The MIC for ampicillin against each isolate was determined for each test to serve as an internal quality control. The MICs of isolates were determined by visual reading and using an EnSpire Multimode Plate Reader 2300 at A600nm.
# [8] = tested on: K. oxytoca 13GNB–582; assay: MIC, broth micro-dilution; type: cell-based; settings: Klebsiella oxytoca, read-out: MIC, Single Drug
# Description: as §2, §3
# [9] = tested on: K. pneumoniae 13GNB–429; assay: MIC, broth micro-dilution; type: cell-based; settings: Klebsiella pneumoniae, read-out: MIC, Single Drug
# Description: as §2, §3
# [10] = tested on: K. pneumoniae 13GNB–550; assay: MIC, broth micro-dilution; type: cell-based; settings: Klebsiella pneumoniae, read-out: MIC, Single Drug
# Description: as §2, §3
# [11] = tested on: Caco-2 (human colorectal adenocarcinoma cell line); assay: In vitro cytotoxicity, WST-1; type: cell-based; settings: Caco-2, 24 h
# [12] = first of two independent experiments
# [13] = second of two independent experiments
SMILES,MIC [1],MIC [2],"MIC, Combination [3]",Combination Effect [3],FICI [3],"MIC, Combination [4]",Combination Effect [4],FICI [4],"MIC, Combination [5]",Combination Effect [5],FICI [5],"MIC, Combination [6]",Combination Effect [6],FICI [6],MIC range [7],MIC [8],MIC [9],MIC [10],"IC50 [11, 12]","IC50 [11, 13]",further results
"[H]/N=C(\N)NN=C(CCCCCC)c1ccc(Cl)cc1 [NCL265, (E)-2-(1-(4-chlorophenyl)heptylidene)hydrazine-1-carboximidamide]",64 µg/mL,2 µg/mL,0.5 µg/mL,"Additivity (additive or partially synergistic, 0.5 < FICI ≤ 1)",0.516,0.25 µg/mL,"Additivity (additive or partially synergistic, 0.5 < FICI ≤ 1)",0.504,2 µg/mL,"Synergism (synergistic, FICI ≤ 0.5)",0.281,0.5 µg/mL,"Synergism (synergistic, FICI ≤ 0.5)",0.5,2 to 16 µg/mL,> 256 µg/mL,> 256 µg/mL,> 256 µg/mL,< 1 µg/mL,< 2 µg/mL,Dose Reduction Index (DRI) PMB:NCL265 ([3]; PMB + NCL265): 64; Dose Reduction Index (DRI) PMB:NCL265 ([4]; PMB + NCL265): 256; Dose Reduction Index (DRI) PMB:NCL265 ([5]; PMB + NCL265): 32; Dose Reduction Index (DRI) PMB:NCL265 ([6]; PMB + NCL265): 4:4
"[H]/N=C(\N)NN=C(CC1CCCCC1)c1ccc(Cl)cc1 [NCL259, (E)-2-(1-(4-chlorophenyl)-2-cyclohexylethylidene)hydrazine-1-carboximidamide]",64 µg/mL,8 µg/mL,2 µg/mL,"Additivity (additive or partially synergistic, 0.5 < FICI ≤ 1)",0.531,1 µg/mL,"Additivity (additive or partially synergistic, 0.5 < FICI ≤ 1)",0.516,1 µg/mL,"Additivity (additive or partially synergistic, 0.5 < FICI ≤ 1)",0.516,1 µg/mL,"Synergism (synergistic, FICI ≤ 0.5)",0.375,4 to 64 µg/mL,> 256 µg/mL,> 256 µg/mL,> 256 µg/mL,< 1 µg/mL,3 µg/mL,Dose Reduction Index (DRI) PMB:NCL259 ([3]; PMB + NCL259): 32; Dose Reduction Index (DRI) PMB:NCL259 ([4]; PMB + NCL259): 64; Dose Reduction Index (DRI) PMB:NCL259 ([5]; PMB + NCL259): 64; Dose Reduction Index (DRI) PMB:NCL259 ([6]; PMB + NCL259): 8
